Results: patent US20240116985A1, “STAPLED PEPTIDES AND METHODS THEREOF” (priority 2020, published 2024)
Like-named read-outs stand apart in the source and are kept apart here.

Key:
[1] = target: T1, full-length beta-Catenin (Uniprot ID P35222) (Homo sapiens, UniProt P35222); assay: Fluorescence polarization IC50 (beta-catenin / 5FAM-TCF4 10-53 competition); assay type: binding
T1 construct: 10 nM full-length beta-Catenin (Uniprot ID P35222)
T1 sequence (P35222 1-781): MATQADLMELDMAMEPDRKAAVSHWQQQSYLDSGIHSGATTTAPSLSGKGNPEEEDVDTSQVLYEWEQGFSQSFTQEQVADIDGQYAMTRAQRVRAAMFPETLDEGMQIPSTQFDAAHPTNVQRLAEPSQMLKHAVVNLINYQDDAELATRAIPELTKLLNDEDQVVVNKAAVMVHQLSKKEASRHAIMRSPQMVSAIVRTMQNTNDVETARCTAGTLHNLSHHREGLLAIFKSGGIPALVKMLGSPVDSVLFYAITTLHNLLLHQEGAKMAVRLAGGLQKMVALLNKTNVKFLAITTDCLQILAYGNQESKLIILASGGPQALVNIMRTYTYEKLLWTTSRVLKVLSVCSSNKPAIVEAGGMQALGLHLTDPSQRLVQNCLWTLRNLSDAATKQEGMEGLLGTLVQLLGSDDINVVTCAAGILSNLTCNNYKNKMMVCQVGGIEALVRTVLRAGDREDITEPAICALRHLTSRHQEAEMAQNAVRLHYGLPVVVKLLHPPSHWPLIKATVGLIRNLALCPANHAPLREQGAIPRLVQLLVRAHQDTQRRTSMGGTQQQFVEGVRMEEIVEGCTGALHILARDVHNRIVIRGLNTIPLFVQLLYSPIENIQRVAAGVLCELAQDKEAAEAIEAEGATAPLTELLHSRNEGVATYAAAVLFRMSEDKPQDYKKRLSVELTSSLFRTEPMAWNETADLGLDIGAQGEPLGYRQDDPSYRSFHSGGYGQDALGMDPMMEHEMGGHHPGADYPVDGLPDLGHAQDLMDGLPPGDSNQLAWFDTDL

[2] = target: T2, full-length B-Catenin (Uniprot ID P35222) (Homo sapiens, UniProt P35222); assay: Alphascreen binding assay (beta-catenin / biotin-TCF4 10-53)
T2 construct: 65 nM full-length B-Catenin (Uniprot ID P35222)
T2 sequence (P35222 1-781): T1 sequence (P35222 1-781)
How it was run: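 Final concentrations: 65 nM full-length human β-catenin plus 10 nM biotin-TCF4(10-53) peptide, test peptide 3-fold from 10 uM to 5 nM, preincubated 15 min at 20 °C in Tris pH 8.0/250 mM NaCl buffer. Nickel-chelate AlphaScreen donor/acceptor beads then added for 60 min in the dark; duplicate reads fitted to 1:1 binding model with Hill slope.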

CHI Log D procedure = assay type: physicochemical; settings: for CHI Log D: pH 7.4; for chromatographic logD: pH 7.4, CHI Log D
[3] = Table E2-1, read-out: beta-Catenin FP IC50
[4] = fluorescence polarization, beta-catenin, read-out: FP EC50

IC50 [1, 3] [nM] | IC50 [1, 4] [nM] | EC50 [2] [nM] | CHI Log D (CHI Log D procedure) | chromatographic logD (CHI Log D procedure) | SMILES
3430 | 3430 | 329 | 2.207 |  | CC(=O)N1CCC[C@]12CC=CCCCC1(CCCC=CCCCCCC[C@@](C)(C(=O)N[C@@H](Cc3cccc4ccccc34)C(=O)N[C@@H](Cc3c[nH]c4ccccc34)C(=O)N[C@@H](CCC(N)=O)C(N)=O)NC(=O)[C@H](C(C)C)NC(=O)[C@H](Cc3ccccc3)NC(=O)[C@H](C)NC(=O)[C@H](C)NC(=O)[C@H](CC(=O)O)NC(=O)[C@H](CC(=O)O)NC1=O)NC(=O)[C@H](C)NC(=O)[C@H](CC(=O)O)NC2=O (stereo partly drawn) [I-276, Ac-PL3-Asp-Ala-B5-Asp-Asp-Ala-Ala-Phe-Val-S8-1NapA-Trp-Gln-NH2]
3120 | 3120 | 181 | 2.05 |  | CC(=O)N1CCC[C@]12CC=CCCCC1(CCCC=CCCCCCC[C@@](C)(C(=O)N[C@@H](Cc3ccccc3)C(=O)N[C@@H](Cc3c[nH]c4ccccc34)C(=O)N[C@@H](CCC(N)=O)C(N)=O)NC(=O)[C@H](C(C)C)NC(=O)[C@H](Cc3ccc(Cl)cc3)NC(=O)[C@H](C)NC(=O)[C@H](C)NC(=O)[C@H](CC(=O)O)NC(=O)[C@H](CC(=O)O)NC1=O)NC(=O)[C@H](C)NC(=O)[C@H](CC(=O)O)NC2=O (stereo partly drawn) [I-309, Ac-PL3-Asp-Ala-B5-Asp-Asp-Ala-Ala-4C1F-Val-S8-Phe-Trp-Gln-NH2]
5000 |  | 246 |  | 1.49 | CC(=O)N1CCC[C@]12CC=CCCCC1(CCCC=CCCCCCC[C@@](C)(C(=O)N[C@@H](Cc3c[nH]cn3)C(=O)N[C@@H](Cc3c[nH]c4ccccc34)C(=O)N[C@@H](CCC(N)=O)C(N)=O)NC(=O)[C@H](C(C)C)NC(=O)[C@H](Cc3ccccc3)NC(=O)[C@H](C)NC(=O)[C@H](C)NC(=O)[C@H](CC(=O)O)NC(=O)[C@H](CC(=O)O)NC1=O)NC(=O)[C@H](C)NC(=O)[C@H](CC(=O)O)NC2=O (stereo partly drawn) [I-285, Ac-PL3-Asp-Ala-B5-Asp-Asp-Ala-Ala-Phe-Val-S8-His-Trp-Gln-NH2]
139 |  | 41 |  | 2.38 | CC(=O)N1CCC[C@]12CC=CCCCC1(CCCC=CCCCCCC[C@@](C)(C(=O)N[C@@H](Cc3ccccc3)C(=O)N[C@@H](Cc3csc4ccccc34)C(=O)N[C@@H](CCC(N)=O)C(N)=O)NC(=O)[C@H](C(C)C)NC(=O)[C@H](Cc3ccccc3)NC(=O)[C@H](C)NC(=O)[C@H](C)NC(=O)[C@H](CN(CC(=O)O)CC(F)(F)F)NC(=O)[C@H](CC(=O)O)NC1=O)NC(=O)[C@H](C)NC(=O)[C@H](CC(=O)O)NC2=O (stereo partly drawn) [I-293, Ac-PL3-Asp-Ala-B5-Asp-TfeGA-Ala-Ala-Phe-Val-S8-Phe-BztA-Gln-NH2]
4950 | 4950 | 534 | 1.875 |  | CC(=O)N1CCC[C@]12CC=CCCCC1(CCCC=CCCCCCC[C@@](C)(C(=O)N[C@@H](Cc3ccccc3)C(=O)N[C@@H](Cc3c[nH]c4ccccc34)C(=O)N[C@@H](CCC(N)=O)C(N)=O)NC(=O)[C@H](C)NC(=O)[C@H](Cc3ccccc3)NC(=O)[C@H](C)NC(=O)[C@H](C)NC(=O)[C@H](CC(=O)O)NC(=O)[C@H](CC(=O)O)NC1=O)NC(=O)[C@H](C)NC(=O)[C@H](CC(=O)O)NC2=O (stereo partly drawn) [I-287, Ac-PL3-Asp-Ala-B5-Asp-Asp-Ala-Ala-Phe-Ala-S8-Phe-Trp-Gln-NH2]
147 |  | 66 |  | 2.12 | CC(=O)N1CCC[C@]12CC=CCCCC1(CCCC=CCCCCCC[C@@](C)(C(=O)N[C@@H](Cc3ccccc3)C(=O)N[C@@H](Cc3csc4ccccc34)C(=O)N[C@@H](CCC(N)=O)C(N)=O)NC(=O)[C@H](C(C)C)NC(=O)[C@H](Cc3ccccc3)NC(=O)[C@H](C)NC(=O)[C@H](C)NC(=O)[C@H](CCC(=O)O)NC(=O)[C@H](CC(=O)O)NC1=O)NC(=O)[C@H](C)NC(=O)[C@H](CC(=O)O)NC2=O (stereo partly drawn) [I-144, Ac-PL3-Asp-Ala-B5-Asp-Glu-Ala-Ala-Phe-Val-S8-Phe-BztA-Gln-NH2]
1090 | 1090 | 175 | 1.259 |  | CC[C@H](C)[C@H](NC(=O)[C@H](CC(=O)O)NC(=O)[C@H](C)NC(C)=O)C(=O)N[C@]1(C)CCN(C)C(=O)OCC=CCCCCC[C@@](C)(C(=O)N[C@@H](Cc2ccccc2)C(=O)N[C@@H](Cc2c[nH]c3ccccc23)C(=O)N[C@@H](Cc2c[nH]cn2)C(N)=O)NC(=O)[C@H](CCC(N)=O)NC(=O)[C@H](Cc2ccccc2)NC(=O)[C@H](C)NC(=O)[C@H](C)NC(=O)[C@H](CCC(=O)O)NC(=O)[C@H](CC(=O)O)NC1=O [I-66, Ac-Ala-Asp-Ile-RdN-Asp-Glu-Ala-Ala-Phe-Gln-S7-Phe-Trp-His-NH2]
4840 | 4840 | 552 | 2.245 |  | CC(=O)N1CCC[C@]12CC=CCCCC1(CCCC=CCCCCCC[C@@](C)(C(=O)N[C@@H](Cc3ccccc3)C(=O)N[C@@H](Cc3c[nH]c4ccccc34)C(=O)N[C@@H](CCC(N)=O)C(N)=O)NC(=O)[C@H](C(C)C)NC(=O)[C@H](Cc3ccccc3)NC(=O)[C@H](C)NC(=O)[C@H](C)NC(=O)[C@H](CCC(N)=O)NC(=O)[C@H](CC(=O)O)NC1=O)NC(=O)[C@H](C)NC(=O)[C@H](CC(=O)O)NC2=O (stereo partly drawn) [I-127, Ac-PL3-Asp-Ala-B5-Asp-Gln-Ala-Ala-Phe-Val-S8-Phe-Trp-Gln-NH2]
1760 | 1760 | 116 | 2.242 |  | CC[C@H](C)[C@@H]1NC(=O)[C@H](CC(=O)O)NC(=O)[C@]2(CC=CCCCC3(CCCC=CCCCCCC[C@@](C)(C(=O)N[C@@H](Cc4ccccc4)C(=O)N[C@@H](Cc4c[nH]c5ccccc45)C(=O)N[C@@H](Cc4c[nH]cn4)C(N)=O)NC(=O)[C@H](CCC(N)=O)NC(=O)[C@H](Cc4ccccc4)NC(=O)[C@H](C)NC(=O)[C@H](C)NC(=O)[C@H](CC(=O)O)NC(=O)[C@H](CC(=O)O)NC3=O)NC1=O)CCCN2C(C)=O (stereo partly drawn) [I-174, Ac-PL3-Asp-Ile-B5-Asp-Asp-Ala-Ala-Phe-Gln-S8-Phe-Trp-His-NH2]
1980 |  | 83 |  | 2.11 | CC(=O)N1CCC[C@]12CC=CCCCC1(CCCC=CCCCCCC[C@@](C)(C(=O)N[C@@H](Cc3ccccc3)C(=O)N[C@@H](Cc3c[nH]c4ccccc34)C(=O)N[C@@H](CCC(N)=O)C(N)=O)NC(=O)[C@H](C(C)C)NC(=O)[C@H](Cc3ccccc3)NC(=O)[C@H](C)NC(=O)[C@H](C)NC(=O)[C@H](CCCC(=O)O)NC(=O)[C@H](CC(=O)O)NC1=O)NC(=O)[C@H](C)NC(=O)[C@H](CC(=O)O)NC2=O (stereo partly drawn) [I-129, Ac-PL3-Asp-Ala-B5-Asp-Aad-Ala-Ala-Phe-Val-S8-Phe-Trp-Gln-NH2]
 | 1600 | 156 | 1.611 |  | CC[C@H](C)[C@@H]1NC(=O)[C@H](CC(=O)O)NC(=O)[C@]2(CC=CCCCC3(CCCC=CCOC(=O)N(C)CCC[C@@](C)(C(=O)N[C@@H](Cc4ccccc4)C(=O)N[C@@H](Cc4c[nH]c5ccccc45)C(=O)N[C@@H](Cc4c[nH]cn4)C(N)=O)NC(=O)[C@H](CCC(N)=O)NC(=O)[C@H](Cc4ccccc4)NC(=O)[C@H](C)NC(=O)[C@H](C)NC(=O)[C@H](CC(=O)O)NC(=O)[C@H](CC(=O)O)NC3=O)NC1=O)CCCN2C(C)=O (stereo partly drawn) [I-189, Ac-PL3-Asp-Ile-B5-Asp-Asp-Ala-Ala-Phe-Gln-SeN-Phe-Trp-His-NH2]
56 |  | 88 | 2.193 |  | CC[C@H](C)[C@@H]1NC(=O)[C@H](CC(=O)O)NC(=O)[C@]2(CC=CCCCC3(CCCC=CCCCCCC[C@@](C)(C(=O)N[C@@H](Cc4ccccc4)C(=O)N[C@@H](Cc4c[nH]c5ccccc45)C(=O)N[C@@H](CCC(N)=O)C(N)=O)NC(=O)[C@H](CCC(N)=O)NC(=O)[C@H](Cc4ccccc4)NC(=O)[C@H](C)NC(=O)[C@H](C)NC(=O)[C@H](CCC(=O)O)NC(=O)[C@H](CC(=O)O)NC3=O)NC1=O)CCCN2C(C)=O (stereo partly drawn) [I-180, Ac-PL3-Asp-Ile-B5-Asp-Glu-Ala-Ala-Phe-Gln-S8-Phe-Trp-Gln-NH2]
